Assay in all cases: Assay B: in vitro antibacterial activity, broth microdilution MIC (NCCLS)
Holding throughout (type): cell-based

The test system of assay [1] is Haemophilus influenzae DILL AMP R. Particulars: Table 2, Assay B, Mueller Hinton broth with yeast extract, hematin and NAD, 20 to 24 hr; code E = Haemophilus influenzae DILL AMP R; unit assumed. The gist of the method: (§1)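 MIC is the lowest concentration with no visible growth after serial two-fold dilution in cation-adjusted Mueller Hinton broth, approximately 5×10^5 CFU/mL inoculum, 16-20 h at 35 °C in air (NCCLS). Broth for H. influenzae gets 5 g/L yeast extract, 0.3 mmol/L hematin and 15 mg/L NAD, for S. pneumoniae 3% lysed horse blood; both incubated 20-24 h.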

The test system of a further assay is Escherichia coli JUHL. Particulars: Table 2, Assay B, cation-adjusted Mueller Hinton broth, 35° C., 16 to 20 hr; code D = Escherichia coli JUHL; unit assumed. The gist of the method: as §1
Assay [2] deals with Enterococcus faecalis PIU 1967. Particulars: Table 2, Assay B, cation-adjusted Mueller Hinton broth, 35° C., 16 to 20 hr; code B = Enterococcus faecalis PIU 1967; unit assumed. In a few lines:
as §1

For assay [3], the system named is Staphylococcus aureus ATCC 6538P. The settings on record: Table 2, Assay B, cation-adjusted Mueller Hinton broth, 35° C., 16 to 20 hr; code A = Staphylococcus aureus ATCC 6538P; unit assumed. The gist of the method: as §1
The test system of assay [4] is Streptococcus pneumoniae ATCC 6303. The settings on record: Table 2, Assay B, Mueller Hinton broth with 3% lysed horse blood, 20 to 24 hr; code F = Streptococcus pneumoniae ATCC 6303; unit assumed. The gist of the method:
as §1

The results in this text go back to US20020049223A1, “Quinoline and naphthyridine carboxylic acid antibacterials” (priority 1999, published 2002).

As to `COC(=O)NC1Cc2cc(-c3ccc4c(=O)c(C(=O)O)cn(C5CC5)c4c3OC)sc2C1` (stereo not shown) [Example 251, 1-cyclopropyl-8-methoxy-7-(5-((methoxvycarbonyl)amino)-5,6-dihydro-4H-cyclopenta[b]thien-2-yl)-4-oxo-1,4-dihydro-3-quiunolinecarboxylic acid], the Antibacterial Activity (MIC's), E in assay [1] came to 0.125 µg/mL. In the assay with Escherichia coli JUHL, this compound yielded an Antibacterial Activity (MIC's), D of 2 µg/mL. For the same compound, the Antibacterial Activity (MIC's), B in assay [2] is 0.5 µg/mL. This compound also had an Antibacterial Activity (MIC's), A in assay [3] of 0.03 µg/mL. In assay [4], this compound displayed an Antibacterial Activity (MIC's), F of 0.25 µg/mL.
`COc1c(-c2cc3c(s2)CC(NC(C)=O)C3)ccc2c(=O)c(C(=O)O)cn(C3CC3)c12` (stereo not shown) [Example 252, 7-(5-(acetylamino)-5,6-dihydro-4H-cyclopenta[b]thien-2-yl)-1-cyclopropyl-8-methoxy-4-oxo-1,4-dihydro-3-quinolinecarboxylic acid] displayed an Antibacterial Activity (MIC's), E in assay [1] of 0.25 µg/mL. In addition, in the assay on Escherichia coli JUHL, the Antibacterial Activity (MIC's), D came out at 4 µg/mL. The compound further came in with an Antibacterial Activity (MIC's), B in assay [2] of 1 µg/mL. This compound also displayed an Antibacterial Activity (MIC's), A in assay [3] of 0.5 µg/mL. This compound returned an Antibacterial Activity (MIC's), F in assay [4] of 1 µg/mL.
On to `COc1c(-c2cc3c(s2)CC(NS(C)(=O)=O)C3)ccc2c(=O)c(C(=O)O)cn(C3CC3)c12` (stereo not shown) [Example 254, 1-cyclopropyl-8-methoxy-7-(5-((methylsulfonyl)amino)-5,6-dihydro-4H-cyclopenta[b]thien-2-yl)-4-oxo-1,4-dihydro-3-quinolinecarboxylic acid], for which the Antibacterial Activity (MIC's), E in assay [1] turned out to be 0.06 µg/mL. Also, the Antibacterial Activity (MIC's), D in the assay with Escherichia coli JUHL turned out to be 1 µg/mL. In addition, in assay [2], the Antibacterial Activity (MIC's), B amounted to 0.5 µg/mL. Moreover, in assay [3], the Antibacterial Activity (MIC's), A was 0.06 µg/mL. In assay [4], this compound returned an Antibacterial Activity (MIC's), F of 0.25 µg/mL.
`COc1c(-c2cc3c(s2)CC(=NOCc2ccccc2)C3)ccc2c(=O)c(C(=O)O)cn(C3CC3)c12` [Example 255] showed an Antibacterial Activity (MIC's), E in assay [1] of 2 µg/mL. Besides, the Antibacterial Activity (MIC's), D in the assay on Escherichia coli JUHL is 32 µg/mL. In assay [2], this compound returned an Antibacterial Activity (MIC's), B of 4 µg/mL. Further, the Antibacterial Activity (MIC's), A in assay [3] is 0.5 µg/mL. Further, the Antibacterial Activity (MIC's), F in assay [4] amounted to 8 µg/mL.
For `COc1c(-c2cc3c(s2)C(O)C2(CC3)CC2)ccc2c(=O)c(C(=O)O)cn(C3CC3)c12` (stereo not shown) [Example 267, 7-(7-hydroxy-6-spirocyclopropyl-4,5,6,7-tetrahydro-1-benzothien-2-yl)-1-cyclopropyl-8-methoxy-4-oxo-1,4-dihydroquinoline-3-carboxylic acid] the same measures were 0.06 µg/mL, 0.5 µg/mL, 0.125 µg/mL, at most 0.004 µg/mL and 0.25 µg/mL.
Take `COc1c(-c2cc3c(s2)C(N)CC(C)(C)C3)ccc2c(=O)c(C(=O)O)cn(C3CC3)c12.Cl` (stereo not shown) [Example 268, 7-(7-amino-5,5-dimethyl-4,5,6,7-tetrahydro-1-benzothien-2-yl)-1-cyclopropyl-8-methoxy-4-oxo-1,4-dihydroquinoline-3-carboxylic acid hydrochloride]: the Antibacterial Activity (MIC's), E in assay [1] amounted to 0.25 µg/mL. Also, in the assay with Escherichia coli JUHL, the Antibacterial Activity (MIC's), D is 0.5 µg/mL. The compound further returned an Antibacterial Activity (MIC's), B in assay [2] of 0.25 µg/mL. In addition, the Antibacterial Activity (MIC's), A in assay [3] was found to be 0.03 µg/mL. In assay [4], the Antibacterial Activity (MIC's), F turned out to be 0.06 µg/mL.
In turn, `Cl.NC1CCCc2cc(-c3nc4c(cc3F)c(=O)c(C(=O)O)cn4C3CC3)sc21` (stereo not shown) [Example 271, 7-(7-amino-4,5,6,7-tetrahydro-1-benzothien-2-yl)-1-cyclopropyl-6-fluoro-4-oxo-1,4-dihydro-1,8-naphthyridine-3-carboxylic acid hydrochloride] showed an Antibacterial Activity (MIC's), E in assay [1] of at most 0.004 µg/mL. Also, the Antibacterial Activity (MIC's), D with Escherichia coli JUHL is at most 0.004 µg/mL. The Antibacterial Activity (MIC's), B in assay [2] amounted to 0.015 µg/mL. The compound also registered an Antibacterial Activity (MIC's), A in assay [3] of at most 0.004 µg/mL. Besides, in assay [4], the Antibacterial Activity (MIC's), F is at most 0.004 µg/mL.
`O=C(O)c1cn(C2CC2)c2cc(-c3cc4c(s3)C(O)CCC4)ccc2c1=O` (stereo not shown) [Example 280, 1-cyclopropyl-7-(7-hydroxy-4,5,6,7-tetrahydro-1-benzothien-2-yl)-4-oxo-1,4-dihydroquinoline-3-carboxylic acid] displayed an Antibacterial Activity (MIC's), E in assay [1] of 0.06 µg/mL. For the same compound, the Antibacterial Activity (MIC's), D in the assay with Escherichia coli JUHL amounted to 0.125 µg/mL. Besides, the Antibacterial Activity (MIC's), B in assay [2] is 0.125 µg/mL. The same compound came in with an Antibacterial Activity (MIC's), A in assay [3] of 0.015 µg/mL. The compound further came in with an Antibacterial Activity (MIC's), F in assay [4] of 0.25 µg/mL.
With `O=C(O)c1cn(C2CC2)c2cc(-c3cc4c(s3)CCCC4O)ccc2c1=O` (stereo not shown) [Example 281, 1-cyclopropyl-7-(4-hydroxy-4,5,6,7-tetrahydro-1-benzothien-2-yl)-4-oxo-1,4-dihydroquinoline-3-carboxylic acid], in assay [1], the Antibacterial Activity (MIC's), E is 0.06 µg/mL. Besides, the Antibacterial Activity (MIC's), D in the assay with Escherichia coli JUHL was determined as 0.125 µg/mL. The compound also displayed an Antibacterial Activity (MIC's), B in assay [2] of 0.125 µg/mL. This compound registered an Antibacterial Activity (MIC's), A in assay [3] of 0.03 µg/mL. The compound also gave an Antibacterial Activity (MIC's), F in assay [4] of 0.25 µg/mL.
For the compound `Cl.NC1CCCc2cc(-c3ccc4c(=O)c(C(=O)O)cn(C5CC5)c4n3)sc21` (stereo not shown) [Example 282, 7-(7-amino-4,5,6,7-tetrahydro-1-benzothien-2-yl)-1-cyclopropyl-4-oxo-1,4-dihydro-1,8-naphthyridine-3-carboxylic acid hydrochloride], the Antibacterial Activity (MIC's), E in assay [1] was 0.03 µg/mL. The Antibacterial Activity (MIC's), D in the assay with Escherichia coli JUHL was determined as 0.015 µg/mL. In assay [2], this compound came in with an Antibacterial Activity (MIC's), B of 0.03 µg/mL. Also, the Antibacterial Activity (MIC's), A in assay [3] was determined as 0.008 µg/mL. Besides, in assay [4], the Antibacterial Activity (MIC's), F was determined as 0.015 µg/mL.
With `Cl.NC1CCCc2sc(-c3ccc4c(=O)c(C(=O)O)cn(C5CC5)c4c3)cc21` (stereo not shown) [Example 287, 7-(4-amino-4,5,6,7-tetrahydro-1-benzothien-2-yl)-1-cyclopropyl-4-oxo-1,4-dihydroquinoline-3-carboxylic acid hydrochloride], in assay [1], the Antibacterial Activity (MIC's), E turned out to be 0.03 µg/mL. This compound also came in with an Antibacterial Activity (MIC's), D in the assay with Escherichia coli JUHL of 0.06 µg/mL. The Antibacterial Activity (MIC's), B in assay [2] is 0.125 µg/mL. In assay [3], this compound gave an Antibacterial Activity (MIC's), A of 0.03 µg/mL. Moreover, the Antibacterial Activity (MIC's), F in assay [4] is 0.03 µg/mL.
For `Cl.NC1CCCc2cc(-c3ccc4c(=O)c(C(=O)O)cn(C5CC5)c4c3)sc21` (stereo not shown) [Example 288, 7-(7-amino-4,5,6,7-tetrahydro-1-benzothien-2-yl)-1-cyclopropyl-4-oxo-1,4-dihydroquinoline-3-carboxylic acid hydrochloride], the Antibacterial Activity (MIC's), E in assay [1] was determined as 0.015 µg/mL. Besides, the Antibacterial Activity (MIC's), D with Escherichia coli JUHL amounted to 0.03 µg/mL. This compound had an Antibacterial Activity (MIC's), B in assay [2] of 0.125 µg/mL. The compound further had an Antibacterial Activity (MIC's), A in assay [3] of 0.03 µg/mL. The compound also showed an Antibacterial Activity (MIC's), F in assay [4] of 0.03 µg/mL.
`CNC1CCCc2sc(-c3cc4c(cc3F)c(=O)c(C(=O)O)cn4C3CC3)cc21.Cl` (stereo not shown) [Example 290, 1-cyclopropyl-6-fluoro-7-(4-(methylamino)-4,5,6,7-tetrahydro-1-benzothien-2-yl)-4-oxo-1,4-dihydroquinoline-3-carboxylic acid hydrochloride]: the Antibacterial Activity (MIC's), E in assay [1] amounted to 0.015 µg/mL. This compound yielded an Antibacterial Activity (MIC's), D in the assay with Escherichia coli JUHL of 0.03 µg/mL. In assay [2], this compound registered an Antibacterial Activity (MIC's), B of 0.125 µg/mL. Also, the Antibacterial Activity (MIC's), A in assay [3] is 0.03 µg/mL. This compound registered an Antibacterial Activity (MIC's), F in assay [4] of 0.03 µg/mL.
`CNC1CCCc2sc(-c3c(F)cc4c(=O)c(C(=O)O)cn(C5CC5)c4c3F)cc21.Cl` (stereo not shown) [Example 291, 1-cyclopropyl-6,8-difluoro-7-(4-(methylamino)-4,5,6,7-tetrahydro-1-benzothien-2-yl)-4-oxo-1,4-dihydroquinoline-3-carboxylic acid hydrochloride] gave an Antibacterial Activity (MIC's), E in assay [1] of 0.015 µg/mL. Further, the Antibacterial Activity (MIC's), D with Escherichia coli JUHL was 0.03 µg/mL. Also, the Antibacterial Activity (MIC's), B in assay [2] worked out at 0.125 µg/mL. In assay [3], the Antibacterial Activity (MIC's), A was determined as 0.015 µg/mL. This compound also came in with an Antibacterial Activity (MIC's), F in assay [4] of 0.03 µg/mL.
In assay [1], `O=C(O)c1cn(C2CC2)c2cc(-c3cc4c(s3)C(O)CCC4)c(F)cc2c1=O` (stereo not shown) [Example 293, 1-cyclopropyl-6-fluoro-7-(7-hydroxy-4,5,6,7-tetrahydro-1-benzothien-2-yl)-4-oxo-1,4-dihydroquinoline-3-carboxylic acid] showed an Antibacterial Activity (MIC's), E of at most 0.004 µg/mL. Also, the Antibacterial Activity (MIC's), D in the assay with Escherichia coli JUHL is 0.015 µg/mL. The compound also gave an Antibacterial Activity (MIC's), B in assay [2] of 0.008 µg/mL. This compound also came in with an Antibacterial Activity (MIC's), A in assay [3] of at most 0.004 µg/mL. Moreover, the Antibacterial Activity (MIC's), F in assay [4] stood at 0.03 µg/mL.
As for `O=C(O)c1cn(C2CC2)c2c(F)c(-c3cc4c(s3)CCCC4O)c(F)cc2c1=O` (stereo not shown) [Example 294, 1-cyclopropyl-6,8-difluoro-7-(4-hydroxy-4,5,6,7-tetrahydro-1-benzothien-2-yl)-4-oxo-1,4-dihydroguinoline-3-carboxylic acid], in assay [1], the Antibacterial Activity (MIC's), E was at most 0.004 µg/mL. Further, in the assay on Escherichia coli JUHL, the Antibacterial Activity (MIC's), D came to 0.03 µg/mL. Also, in assay [2], the Antibacterial Activity (MIC's), B came out at 0.015 µg/mL. In assay [3], this compound came in with an Antibacterial Activity (MIC's), A of at most 0.004 µg/mL. In assay [4], the Antibacterial Activity (MIC's), F amounted to 0.03 µg/mL.
On to `O=C(O)c1cn(C2CC2)c2c(F)c(-c3cc4c(s3)C(O)CCC4)c(F)cc2c1=O` (stereo not shown) [Example 295, 1-cyclopropyl-6,8-difluoro-7-(7-hydroxy-4,5,6,7-tetrahydro-1-benzothien-2-yl)-4-oxo-1,4-dihydroquinoline-3-carboxylic acid], for which the Antibacterial Activity (MIC's), E in assay [1] is at most 0.004 µg/mL. The compound further displayed an Antibacterial Activity (MIC's), D in the assay on Escherichia coli JUHL of 0.03 µg/mL. Moreover, in assay [2], the Antibacterial Activity (MIC's), B came out at 0.008 µg/mL. The same compound displayed an Antibacterial Activity (MIC's), A in assay [3] of at most 0.004 µg/mL. The same compound yielded an Antibacterial Activity (MIC's), F in assay [4] of 0.03 µg/mL.
